From ChEMBL document CHEMBL1146473, “Tyromycic acids B-E, new lanostane triterpenoids from the mushroom Tyromyces fissilis” (J Nat Prod, 2004)
Calls of active or inactive are those of the source. No cut-off for these calls is given here.

Tests used:
[1] = test system: Radical scavenging activity; assay: Antioxidant activity assessed as DPPH radical scavenging activity; type: functional
[2] = test system: Human immunodeficiency virus 1; assay: Antiviral activity against HIV1 infected in human MT4 cells; type: functional, organism-based

SMILES | Activity [1] | Activity [2]
CC(=O)O[C@@H]1C2=C(CC[C@H]3C(C)(C)C(=O)CC[C@]23C)[C@]2(C)CC[C@H]([C@H](C)CC/C=C(\C)C(=O)O)[C@@]2(C)[C@@H]1OC(C)=O | inactive | inactive
C/C(=C\CC[C@@H](C)[C@H]1CC[C@@]2(C)C3=CC[C@H]4C(C)(C)C(=O)CC[C@]4(C)C3=C[C@@H](O)[C@]12C)C(=O)O | inactive | inactive
CC(=O)O[C@@H]1C=C2C(=CC[C@H]3C(C)(C)[C@@H](O)CC[C@]23C)[C@]2(C)CC[C@H]([C@H](C)CC/C=C(\C)C(=O)O)[C@@]12C | inactive | inactive
